This is an account of results in patent US11654149B2, “Calmodulin inhibitors for the treatment of ribosomal disorders and ribosomapathies” (CHILDREN'S MEDICAL CENTER CORPORATION, priority 2012, dated 2023).

The structures appear in SMILES notation. “Also recorded” adds a separate entry of the source. Counter-ions that a name gives are not always drawn.

Data set [1] has as its system rps29−/− zebrafish embryos. The data set is described as follows: flk1 whole-mount in situ hybridization (intersegmental vessel staining) in rps29−/− embryo chemical screen. It is filed as in vivo. To be noted: rps29−/− embryos treated from bud to 23 hpf, flk1 ISH at 24 hpf. How it is done:
Fish were maintained under approved laboratory conditions.
(§1) Whole-mount in situ hybridization (ISH) was performed as described (Thisse and Thisse, 2008). Antisense probes were synthesized from digested plasmid. O-Dianisidine was performed as described previously (Paffett-Lugassy and Zon, 2005).

The test system of the next data set is rps29 mutant embryos. The data set can be described thus: benzidine staining for hemoglobin levels in rps29 mutant embryos. It is filed as in vivo, zebrafish. To be noted: benzidine staining at 40 hpf. How it is done: Fish were maintained under approved laboratory conditions. […] .
as §1

In data set [2] the test system is A549 cells. The data set is described as follows: flow cytometry of p53 and p21 protein in A549 cells with RPS19 shRNA. It is filed as cell-based. To be noted: for p21 protein level / p53 protein level: A549, RPS19 shRNA, drug 24 hours post infection, analyzed 3-6 days post infection. The method, then: (§2) A549 and CD34+ cells were infected with previously characterized lentiviral shRNA targeting RPS19 (Dutt et al., 2011). Unless otherwise noted, drugs were added one day post infection, and cells were collected for analysis 3-6 days post infection.
(§3) For flow cytometry based measurement of protein levels, cells were fixed in 2% paraformaldehyde for 15 minutes at 37° C., and methanol was added for overnight incubation at 4° C. Cells were incubated for one hour in 1:100 diluted p21 primary antibody (Cell Signaling 12D1) followed by one hour in conjugated secondary antibody and 1:50 diluted p53-conjugated antibody (Cell Signaling 1C12). Immunofluorescence staining was performed as previously described (Dutt et al., 2011).
The inventors next tested the effect of calmodulin inhibitors in A549 cells, where p53 is not mutated and is induced upon ribosomal protein knockdown (Fumagalli et al., 2009). A549 cells were infected with control or RPS19 shRNA and treated with A-3 or TFP 24 hours post infection. Cells were analyzed 3-6 days post infection. […] In addition, removal of drug leads to an increase in p21 levels within 24 hours (data not shown).
(In general: A flow cytometer gives signals particle by particle.)

The subject of data set [3] is A549 cells. The data set is described as follows: immunofluorescence staining for p53 and p21 nuclear localization in A549 cells with RPS19 knockdown. In kind it is cell-based. The settings on record: for p53 nuclear staining intensity: p=0.00028 for A-3; for p53 nuclear accumulation: A549 cells. How it is done: as §2, §3
Immunofluorescence staining for p53 and p21 was performed on chemically treated cells (FIG. 4A). For 10-15 cells per condition, average nuclear and cytoplasmic intensity was determined using ImageJ.

For data set [4], the system named is A549 cells. The data set is described as follows: flow cytometry for annexin and propidium iodide in A549 cells. In kind it is cell-based. How it is done: (§4) FIGS. 4A-4D show treatment with A-3 inhibits p53 and p21 nuclear localization upon rps19 knockdown.
as §2

The subject of data set [5] is A549 cells. The data set is described as follows: cell cycle status by flow cytometry (propidium iodide) in A549 cells. It is filed as cell-based. How it is done:
as §4, §2

A further data set has as its system CD34+ cells. The data set is described as follows: p21 protein by FACS in CD34+ cells with RPS19 knockdown in erythroid proliferation media. In kind it is cell-based, human. The method, then: as §2, §3
As DBA is a hematopoietic disorder, the inventors next tested the effects of A-3 in CD34+ cells with RPS19 knockdown by siRNA. In an in vitro system that mimics the differentiation of erythrocytes in vivo, the inventors knocked down RPS19 using shRNA. […] When RPS19 is reduced during erythroid differentiation, p21 mRNA levels increased about 6-fold compared to luciferase-infected controls and the transferrin receptor, CD71+ and a marker that is first detected at the proerythroblast stage, glycophorin A (GPA), are reduced 40% and 50%, respectively (Dutt et al., 2011).

The test system of data set [6] is calmodulin dependent PDE1. The settings on record: cited from earlier work.
Data set [7] has as its system rps29−/− zebrafish embryos. The data set is described as follows: head morphology scoring in rps29−/− embryo chemical screen. To be noted: 24 hpf.
Method: Fish were maintained under approved laboratory conditions. Studies were performed on AB wildtype strains and hi2903, an insertional mutant in the first intron of ribosomal protein S29 (rps29). Embryos were subjected to chemicals diluted in E3. For screening, chemicals from ICCB Biomol Known Bioactive, Sigma, and Lopac libraries were tested at 1:300 dilutions from library stock. Compounds were tested in two independent experiments of 20 embryos each, so approximately 10 mutant embryos were scored per chemical. […] Nimodipine (Enzo) was diluted in DMSO and tested in doses from 1.5 to 20 μg/mL. SNAP (Cayman) was diluted in DMSO and tested in doses from 0.5 to 5 μg/mL. YS-035 (Sigma) was diluted in water and treated in doses from 0.8 to 8 μg/mL. Vinpocetine (Enzo) was diluted in ethanol and treated in doses from 0.3 to 3 μg/mL.
A screen was performed to identify chemicals that could rescue the endothelial and morphological defects of the rps29^−/− mutant embryo (FIG. 1A). Rps29^−/− fish were incrossed, and embryos were collected for treatment at bud stage (10 hpf). Embryos were treated from bud to 23 hpf with compounds of known bioactivity. After being scored for rescue of head morphology, embryos were fixed at 24 hpf for in situ hybridization of flk1 and rps29. Embryos without rps^29 staining (rps29^−/− mutants) were scored for rescue of flk1 intersegmental vessel staining.
In the next data set the test system is Human CD34+ cells. The data set can be described thus: in vitro erythroid differentiation assay of CD34+ cells with RPS19 shRNA. In kind it is cell-based. Set-up: p21 mRNA: dose or concentration left out as unconfirmed. The settings on record: for rescue of CD71+ expression: day 10 of erythroid differentiation, flow cytometry. How it is done: as §2
As DBA is a hematopoietic disorder, the inventors next tested the effects of A-3 in CD34+ cells with RPS19 knockdown by siRNA. In an in vitro system that mimics the differentiation of erythrocytes in vivo, the inventors knocked down RPS19 using shRNA. Human CD34+ cells are expanded in culture for 4 days and then infected with RPS19 shRNA or luciferase control shRNA lentiviral construct, selected with puromycin for 2 days and on day 7, the media is replaced with media containing high EPO to initiate erythroid differentiation (FIG. 6A). When RPS19 is reduced during erythroid differentiation, p21 mRNA levels increased about 6-fold compared to luciferase-infected controls and the transferrin receptor, CD71+ and a marker that is first detected at the proerythroblast stage, glycophorin A (GPA), are reduced 40% and 50%, respectively (Dutt et al., 2011).

Data set [8] concerns human T cells subjected to ionizing radiation. To be noted: read-out: EC50, prevention of apoptosis; cited from earlier work.
Data set [9] has as its system ion channel currents (calcium, potassium and sodium channels). The settings on record: in vitro experiments and in animals; cited from earlier work.
The conditions of data set [10]: cited from earlier work.
Where [11] appears, read: A549, RPS19 knockdown, ImageJ, 10-15 cells per condition.

For the compound `CC(=O)N[C@@H](C(=O)O)C(C)(C)SN=O` (racemic) [SNAP], the “rescue of flk1 expression / vasculature defect” value in [1] is “rescued flk1 intersegmental vessel staining”.

Take `NCCNS(=O)(=O)c1cccc2c(Cl)cccc12` [A-3]: the “rescue of flk1 expression / vasculature defect” value in data set [1] is reported as “did not rescue the vasculature”. Further, the “rescue of hemoglobin levels” value in the data set with rps29 mutant embryos was “rescue hemoglobin levels”. Moreover, in the data set with A549 cells [2], the p21 protein level entry is “statistically significant decrease; also recorded: decrease of p21 protein” and the p53 protein level entry is recorded as “still increased; also recorded: without a matching decrease of p53”. In addition, the “time of treatment until p21 protein levels begin to decrease” value in the data set with A549 cells [2] (A549, shorter treatment windows (FIG. 3E-3F, timecourse of A-3 treatment)) was ≤ 1.5 h. Moreover, the “p53 nuclear staining intensity” value with A549 cells [3] (setting [11]) is “decreased”. For the same compound, in the data set on A549 cells [3] (A549, RPS19 knockdown, ImageJ, 10-15 cells per condition, p=0.007 for A-3), the “p21 nuclear staining intensity” value is on record as “decreased”. The p53 nuclear accumulation result in the data set with A549 cells [3] was “reversed p53 nuclear accumulation”. Further, the “annexin V positivity” value in the data set with A549 cells [4] is “increased annexin V positivity”. Besides, in the data set on A549 cells [5], the “effect on RPS19 shRNA induced cell cycle arrest” value is “no obvious effect”. Moreover, in the data set with CD34+ cells (CD34+ cells in an erythroid cell population in vitro), the “concentration decreasing the levels of p21 in CD34+ cells” value lay within 1 to 50 µM. For the same compound, the p21 protein entry in the data set on CD34+ cells (CD34+ cells, RPS19 knockdown, erythroid proliferation media) is reported as “decrease p21 protein”. For the same compound, the “inhibition of calmodulin dependent PDE1 compared with other calmodulin-dependent enzymes” value in data set [6] was “less effective inhibitor”. Besides, in data set [7], the “rescue of head morphology” value is “rescued the morphology”.

For `Cl.NCCCCCCCCCCNS(=O)(=O)c1cccc2c(Cl)cccc12` [A-7], the “rescue of flk1 expression / vasculature defect” value in [1] is given as “rescue the vasculature defect”.

As to `NC(=O)c1ccc2[nH]c(-c3ccc(Oc4ccc(Cl)cc4)cc3)nc2c1` [BML-277], the p53 nuclear accumulation result with A549 cells [3] is recorded as “prevented nuclear accumulation of p53”. Besides, the “rescue of CD71+ levels” value with Human CD34+ cells (inhibitor panel against individual calmodulin-dependent enzymes) was “rescued CD71+ levels”. In data set [8], the 50% effective concentration (EC50) (as a rule, the concentration giving half of the maximal effect) was 3 to 7.6 µM.

With `CC1(CN2CCC(n3c(=O)[nH]c4ccccc43)CC2)OCc2ccccc2-n2cccc21` (centres unmarked) [CGS-9343B, zaldaride maleate], the “rescue of flk1 expression / vasculature defect” value in data set [1] is recorded as “rescued flk1 expression”.

As for `CN1CCN(CCCN2c3ccccc3Sc3ccc(C(F)(F)F)cc32)CC1` [TFP, 10-[3-(4-methylpiperazin-1-yl)propyl]-2-(trifluoromethyl)-10H-phenothiazine], in [1], the “rescue of flk1 expression / vasculature defect” value was “rescued flk1 expression”. Also, in the data set on A549 cells [2], the p21 protein level result is on record as “statistically significant decrease; also recorded: decrease of p21 protein” and the p53 protein level result was “still increased; also recorded: without a matching decrease of p53”. The “p53 nuclear staining intensity” value with A549 cells [3] (setting [11]) is recorded as “same effect was seen”. In addition, in the data set on A549 cells [3], the p53 nuclear accumulation entry is listed as “reversed p53 nuclear accumulation”. Also, the “annexin V positivity” value in the data set on A549 cells [4] is recorded as “increased annexin V positivity”. The “effect on RPS19 shRNA induced cell cycle arrest” value in the data set on A549 cells [5] is reported as “no obvious effect”. For the same compound, in the data set with Human CD34+ cells, the “rescue of blood cell differentiation” value is “can rescue blood cell differentiation”. The “p21 mRNA” value in the data set with Human CD34+ cells (RPS19 shRNA, quantitative PCR) is on record as “decreased p21 mRNA to control levels”. The “rescue of CD71+ expression” value in the data set with Human CD34+ cells (RPS19 shRNA) is “rescue CD71+ expression”. Moreover, the “concentration restoring the percentage of CD71+ cells” value with Human CD34+ cells (erythroid cell population in vitro) fell in the range of 5 to 20 µM.

For the compound `CCOC(=O)C1=C[C@]2(CC)CCCN3CCc4c(n1c1ccccc41)[C@@H]32` [Vinpocetine, ethyl apovincaminate], in data set [1], the “rescue of flk1 expression / vasculature defect” value is “a hit in the screen”.

As to `Cl.NCCCCCCNS(=O)(=O)c1cccc2ccccc12` [W-5], the “rescue of flk1 expression / vasculature defect” value in data set [1] is recorded as “rescue the vasculature defect”.

As to `Cl.NCCCCCCNS(=O)(=O)c1cccc2c(Cl)cccc12` [W-7, N-(6-Aminohexyl)-5-chloro-1-naphthalenesulfonamide hydrochloride], the “rescue of flk1 expression / vasculature defect” value in data set [1] is listed as “rescue flk1 expression”. Besides, the “rescue of hemoglobin levels” value in the data set on rps29 mutant embryos was “rescues hemoglobin levels”.

`COc1ccc(CCN(C)CCc2ccc(OC)c(OC)c2)cc1OC` [YS-035]: in data set [1], the “rescue of flk1 expression / vasculature defect” value is “rescued the vasculature defect”.

For `CC(C)COCC(CN(Cc1ccccc1)c1ccccc1)N1CCCC1` (centres unmarked) [bepridil], the “IC50 for these processes” value in [9] is reported as “low micromolar range”.

Consider `OCCN1CCN(CCCN2c3ccccc3Sc3ccc(C(F)(F)F)cc32)CC1` [fluphenazine, 4-[3-[2-(trifluoromethyl)phenothiazin-10-yl]propyl]-1-piperazineethanol], for which, in the data set on Human CD34+ cells, the “rescue of blood cell differentiation” value is given as “can rescue blood cell differentiation”. Moreover, in the data set on Human CD34+ cells (RPS19 shRNA), the “rescue of CD71+ expression” value is reported as “rescue CD71+ expression”.

In the case of `OCCN1CCN(CCCN2c3ccccc3Sc3ccc(Cl)cc32)CC1` [perphenazine, 4-[3-(2-Chloro-10H-phenothiazin-10-yl)propyl]-1-piperazineethanol], the “rescue of blood cell differentiation” value in the data set on Human CD34+ cells was “can rescue blood cell differentiation”. Moreover, the oral bioavailability entry in data set [10] is “approximately 40%”.
